Test results from ChEMBL document CHEMBL1158329, “Four new cytotoxic germacranolides from Carpesium divaricatum” (1997).
Values after ≈ are worked out from the molar mass of the structure shown.

What was measured:
Assay type in all cases: functional
Conditions in all cases: read-out: ED50 (the source's name)
A549 = experiment: Cytotoxicity against human A549 cells by SRB assay
SK-OV-3 = experiment: Cytotoxicity against human SKOV3 cells by SRB assay
SK-MEL-2 = experiment: Cytotoxicity against human SK-MEL-2 cells by SRB assay
XF498 = experiment: Cytotoxicity against human XF498 cells by SRB assay
HCT-15 = experiment: Cytotoxicity against human HCT15 cells by SRB assay

Row | Structure (SMILES) | EC50 (A549) [µg/mL] | EC50 (SK-OV-3) [µg/mL] | EC50 (SK-MEL-2) [µg/mL] | EC50 (XF498) [µg/mL] | EC50 (HCT-15) [µg/mL]
1 | COc1cccc2c1C(=O)c1c(O)c3c(c(O)c1C2=O)C[C@@](O)(C(=O)CO)C[C@@H]3O[C@H]1C[C@H](N)[C@H](O)[C@H](C)O1 [DOXORUBICIN] | 0.12 (≈ 0.221 µM) | 0.13 (≈ 0.239 µM) | 0.11 (≈ 0.202 µM) | 0.23 (≈ 0.423 µM) | 2.4 (≈ 4.42 µM)
2 | C=C1C(=O)O[C@@H]2[C@@H]1[C@H](OC(=O)C(C)C)C(=O)[C@@H](C)C[C@H](O)C[C@](C)(O)[C@H]2OC(=O)/C(C)=C\C [CARDIVIN C] | 3.12 (≈ 6.69 µM) | 1.6 (≈ 3.43 µM) | 1.08 (≈ 2.31 µM) | 1.31 (≈ 2.81 µM) | 1.38 (≈ 2.96 µM)
3 | C=C1C(=O)O[C@@H]2[C@@H]1[C@H](OC(=O)/C(C)=C\C)C(=O)[C@@H](C)C[C@H](O)C[C@](C)(O)[C@H]2OC(=O)C(C)CC (stereo not given in full) [CARDIVIN A] | 3.17 (≈ 6.6 µM) | 1.47 (≈ 3.06 µM) | 1.16 (≈ 2.41 µM) | 1.4 (≈ 2.91 µM) | 1.28 (≈ 2.66 µM)
4 | C=C1C(=O)O[C@@H]2[C@@H]1[C@H](OC(=O)C(C)C)C(=O)[C@@H](C)C[C@H](O)C[C@](C)(O)[C@H]2OC(=O)C(C)C [CARDIVIN D] | 8.36 (≈ 18.4 µM) | 3.78 (≈ 8.32 µM) | 1.88 (≈ 4.14 µM) | 3.05 (≈ 6.71 µM) | 3 (≈ 6.6 µM)
5 | C=C1C(=O)O[C@@H]2[C@@H]1[C@H](OC(=O)C(C)CC)C(=O)[C@@H](C)C[C@H](O)C[C@](C)(O)[C@H]2OC(=O)C(C)C (stereo not given in full) [CARDIVIN B] | 3.71 (≈ 7.92 µM) | 2.24 (≈ 4.78 µM) | 1.45 (≈ 3.09 µM) | 1.69 (≈ 3.61 µM) | 2.06 (≈ 4.4 µM)
